Laboratory results reported in article PMC4772116 (Scientific Reports, 2016).
Where a SMILES comes first, the peptide text is derived from it. Bridges are numbered along the chain shown (N, C = ends).

Assays:
human α3β2 nAChR = human α3β2 nAChR (Homo sapiens, UniProt P17787+P32297); assay: cell-based; assay type: cell-based
human α3β4 nAChR = human α3β4 nAChR (Homo sapiens, UniProt P30926+P32297); assay: cell-based
Ac-AChBP = Ac-AChBP (Aplysia californica, UniProt Q8WSF8); assay: biochemical; assay type: binding
Chain of Ac-AChBP (Q8WSF8 20-236 limits assumed): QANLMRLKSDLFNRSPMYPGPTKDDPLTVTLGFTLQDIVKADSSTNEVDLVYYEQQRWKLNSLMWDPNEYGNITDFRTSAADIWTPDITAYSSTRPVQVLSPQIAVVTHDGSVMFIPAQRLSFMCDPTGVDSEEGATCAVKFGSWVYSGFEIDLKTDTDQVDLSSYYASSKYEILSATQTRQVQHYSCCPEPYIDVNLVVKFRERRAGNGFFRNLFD

Chain of human α3β4 nAChR (P32297 32-505 limits assumed): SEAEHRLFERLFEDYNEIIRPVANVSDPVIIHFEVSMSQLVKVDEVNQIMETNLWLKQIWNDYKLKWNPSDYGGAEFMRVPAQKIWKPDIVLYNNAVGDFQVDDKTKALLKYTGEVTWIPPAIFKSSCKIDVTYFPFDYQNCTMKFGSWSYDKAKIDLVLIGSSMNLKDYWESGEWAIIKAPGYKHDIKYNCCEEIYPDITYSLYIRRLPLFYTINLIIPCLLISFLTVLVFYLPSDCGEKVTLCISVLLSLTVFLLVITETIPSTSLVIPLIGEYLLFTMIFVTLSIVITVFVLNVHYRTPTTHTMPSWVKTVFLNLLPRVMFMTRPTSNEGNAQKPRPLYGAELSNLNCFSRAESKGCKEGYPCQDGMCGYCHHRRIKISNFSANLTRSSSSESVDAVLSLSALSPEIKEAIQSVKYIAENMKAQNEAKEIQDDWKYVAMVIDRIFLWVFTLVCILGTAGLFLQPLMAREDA
Chain of human α3β4 nAChR (P30926 22-498 limits assumed): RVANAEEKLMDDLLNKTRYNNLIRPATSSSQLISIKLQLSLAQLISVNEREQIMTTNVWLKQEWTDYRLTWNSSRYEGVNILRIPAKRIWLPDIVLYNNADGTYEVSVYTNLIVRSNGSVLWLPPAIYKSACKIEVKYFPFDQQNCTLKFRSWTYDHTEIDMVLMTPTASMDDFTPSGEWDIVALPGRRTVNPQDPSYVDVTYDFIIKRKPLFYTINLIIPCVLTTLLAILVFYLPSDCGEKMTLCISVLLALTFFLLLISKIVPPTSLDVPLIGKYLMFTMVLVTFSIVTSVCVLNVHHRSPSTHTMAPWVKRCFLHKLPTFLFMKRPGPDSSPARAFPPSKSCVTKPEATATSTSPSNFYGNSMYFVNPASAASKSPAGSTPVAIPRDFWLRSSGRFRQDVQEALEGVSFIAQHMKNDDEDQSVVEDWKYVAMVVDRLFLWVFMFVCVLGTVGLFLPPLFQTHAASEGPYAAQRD
Chain of human α3β2 nAChR (P32297 32-505 limits assumed): as the sequence (P32297 32-505 limits assumed) above
Chain of human α3β2 nAChR (P17787 26-502 limits assumed): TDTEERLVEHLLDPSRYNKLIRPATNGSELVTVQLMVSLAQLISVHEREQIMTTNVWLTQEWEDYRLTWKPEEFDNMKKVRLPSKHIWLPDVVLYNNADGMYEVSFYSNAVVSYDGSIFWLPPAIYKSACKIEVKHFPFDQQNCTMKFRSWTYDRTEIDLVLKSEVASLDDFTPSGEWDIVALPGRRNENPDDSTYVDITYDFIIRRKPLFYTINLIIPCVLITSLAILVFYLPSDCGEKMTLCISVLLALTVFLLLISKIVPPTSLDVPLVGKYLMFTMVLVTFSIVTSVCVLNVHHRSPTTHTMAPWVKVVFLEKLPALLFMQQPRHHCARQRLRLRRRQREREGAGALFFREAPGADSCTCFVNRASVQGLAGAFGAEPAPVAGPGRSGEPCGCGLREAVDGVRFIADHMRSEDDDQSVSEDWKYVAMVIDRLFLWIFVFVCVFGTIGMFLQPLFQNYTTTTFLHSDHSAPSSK

SMILES: CC[C@H](C)[C@@H]1NC(=O)[C@H](Cc2c[nH]cn2)NC(=O)[C@H](CCC(N)=O)NC(=O)[C@H](CC(N)=O)NC(=O)[C@H](CC(N)=O)NC(=O)CNC(=O)[C@H](C)NC(=O)[C@@H]2CSSC[C@H](NC(=O)CN)C(=O)N[C@@H](CSSC[C@@H](C(N)=O)NC1=O)C(=O)N[C@@H](CO)C(=O)N[C@@H](C)C(=O)N1CCC[C@H]1C(=O)N[C@@H](C)C(=O)N2 [GIC(H5A)] (H-GCCSAPACAGNNQHIC-NH2; disulfide 2-8, 3-16)
- Decrease in the inhibition of α3β2 nAChR versus wild-type GIC (human α3β2 nAChR): more than 10,000 fold
- IC50 (human α3β2 nAChR): > 10 µM
- IC50 (human α3β4 nAChR): > 10 µM
- Increase in the IC50 value for Ac-AChBP versus wild-type GIC (Ac-AChBP): ~100 fold

SMILES: CC[C@H](C)[C@@H]1NC(=O)[C@H](Cc2c[nH]cn2)NC(=O)[C@H](C)NC(=O)[C@H](CC(N)=O)NC(=O)[C@H](CC(N)=O)NC(=O)CNC(=O)[C@H](C)NC(=O)[C@@H]2CSSC[C@H](NC(=O)CN)C(=O)N[C@@H](CSSC[C@@H](C(N)=O)NC1=O)C(=O)N[C@@H](CO)C(=O)N[C@@H](Cc1c[nH]cn1)C(=O)N1CCC[C@H]1C(=O)N[C@@H](C)C(=O)N2 [GIC(Q13A)]
- IC50 (human α3β2 nAChR): 0.00841 µM
- IC50 (human α3β4 nAChR): 0.66 µM

SMILES: CC[C@H](C)[C@@H]1NC(=O)[C@H](Cc2c[nH]cn2)NC(=O)[C@H](CCC(N)=O)NC(=O)[C@H](CC(N)=O)NC(=O)[C@H](CC(N)=O)NC(=O)CNC(=O)[C@H](C)NC(=O)[C@@H]2CSSC[C@H](NC(=O)CN)C(=O)N[C@@H](CSSC[C@@H](C(N)=O)NC1=O)C(=O)N[C@@H](CO)C(=O)N[C@@H](Cc1c[nH]cn1)C(=O)N1CCC[C@H]1C(=O)N[C@@H](CC(C)C)C(=O)N2 [GIC(A7L)] (H-GCCSHPLCAGNNQHIC-NH2; disulfide 2-8, 3-16)
- Decrease in the inhibition of α3β2 nAChR versus wild-type GIC (human α3β2 nAChR): more than 10,000 fold
- IC50 (human α3β2 nAChR): > 10 µM
- IC50 (human α3β4 nAChR): > 10 µM

SMILES: CC[C@H](C)[C@@H]1NC(=O)[C@H](Cc2c[nH]cn2)NC(=O)[C@H](CCC(N)=O)NC(=O)[C@H](CC(N)=O)NC(=O)[C@H](CC(N)=O)NC(=O)CNC(=O)[C@H](C)NC(=O)[C@@H]2CSSC[C@H](NC(=O)CN)C(=O)N[C@@H](CSSC[C@@H](C(N)=O)NC1=O)C(=O)N[C@@H](CO)C(=O)N[C@@H](Cc1c[nH]cn1)C(=O)N1CCC[C@H]1C(=O)NCC(=O)N2 [GIC(A7G)] (H-GCCSHPGCAGNNQHIC-NH2; disulfide 2-8, 3-16)
- IC50 (human α3β2 nAChR): 4.21 µM
- IC50 (human α3β4 nAChR): > 10 µM

SMILES: CC[C@H](C)[C@@H]1NC(=O)[C@H](Cc2c[nH]cn2)NC(=O)[C@H](CCC(N)=O)NC(=O)[C@H](C)NC(=O)[C@H](CC(N)=O)NC(=O)CNC(=O)[C@H](C)NC(=O)[C@@H]2CSSC[C@H](NC(=O)CN)C(=O)N[C@@H](CSSC[C@@H](C(N)=O)NC1=O)C(=O)N[C@@H](CO)C(=O)N[C@@H](Cc1c[nH]cn1)C(=O)N1CCC[C@H]1C(=O)N[C@@H](C)C(=O)N2 [GIC(N12A)] (H-GCCSHPACAGNAQHIC-NH2; disulfide 2-8, 3-16)
- IC50 (human α3β2 nAChR): 1.98 µM
- IC50 (human α3β4 nAChR): > 10 µM

SMILES: CC[C@H](C)[C@@H]1NC(=O)[C@H](Cc2c[nH]cn2)NC(=O)[C@H](CCC(N)=O)NC(=O)[C@H](CC(N)=O)NC(=O)[C@H](C)NC(=O)CNC(=O)[C@H](C)NC(=O)[C@@H]2CSSC[C@H](NC(=O)CN)C(=O)N[C@@H](CSSC[C@@H](C(N)=O)NC1=O)C(=O)N[C@@H](CO)C(=O)N[C@@H](Cc1c[nH]cn1)C(=O)N1CCC[C@H]1C(=O)N[C@@H](C)C(=O)N2 [GIC(N11A)] (H-GCCSHPACAGANQHIC-NH2; disulfide 2-8, 3-16)
- IC50 (human α3β2 nAChR): 1.6 µM
- IC50 (human α3β4 nAChR): > 10 µM
